This assay addresses G-protein coupled receptor 151 (Homo sapiens) (UniProt Q8TDV0). The assay can be described thus: GPR151 activator potency, dose response, cell-based (AID 1508610). To be noted: cell-based GPR151 activation reporter.

SMILES strings stand for the structures. Activity calls are given as the source filed them. How the calls were made is not given here. Some results are limits rather than exact numbers.

G-protein coupled receptor 151 (Homo sapiens), sequence (Q8TDV0 whole entry, looked up): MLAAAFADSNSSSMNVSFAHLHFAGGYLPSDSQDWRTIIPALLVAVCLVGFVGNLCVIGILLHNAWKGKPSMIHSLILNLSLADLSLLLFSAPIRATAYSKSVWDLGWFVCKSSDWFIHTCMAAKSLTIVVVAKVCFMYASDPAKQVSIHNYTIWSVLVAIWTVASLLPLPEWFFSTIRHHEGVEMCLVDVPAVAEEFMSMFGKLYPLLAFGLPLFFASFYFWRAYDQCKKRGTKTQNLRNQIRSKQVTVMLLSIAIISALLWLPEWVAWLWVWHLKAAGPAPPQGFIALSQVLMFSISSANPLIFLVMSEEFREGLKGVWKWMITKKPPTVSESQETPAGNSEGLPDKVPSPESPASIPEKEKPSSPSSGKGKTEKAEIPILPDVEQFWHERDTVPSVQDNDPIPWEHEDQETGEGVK

`O=C1c2ccccc2C(Nc2ccc(Cl)cc2)N1c1cccnc1` (stereo not drawn): the EC50 (usually the concentration that produces a half-maximal response) is > 28 µM (inactive).

On to `Cn1cccc1C(=O)OCC(=O)NC(=O)NCc1ccccc1`, for which the EC50 was > 28.4 µM (inactive).

For `O=C(O)c1ccc(OCc2ccnc(Cl)c2)cc1`, the EC50 is > 28 µM (inactive).

Regarding `O=C(Nc1nc(-c2ccc(I)cc2)cs1)c1ccc(Cl)s1`, the EC50 was > 24.9 µM (inactive).

For the molecule `CCOC(=O)N1CCc2nc(NC(=O)c3ccnn3CC)sc2C1`, the EC50 was > 28 µM (inactive).

With `CCCCNC(=O)/C(=C/c1ccccc1)NC(=O)/C=C/c1ccco1`, the EC50 is > 28 µM (inactive).

Turning to `CC[C@@H](C(=O)C(C)[C@@H](O)[C@H](C)CCc1ccc(C)c(O)c1C(=O)O)C1OC(CC)(C2CC[C@](O)(CC)[C@H](C)O2)C[C@@H]1C` (stereo partly drawn), the EC50 result is “inactive”.

Take `Cc1ccc(NC(=O)/C(C#N)=C\c2ccccc2O)cc1C`: the EC50 is > 28 µM (inactive).

Consider `COc1ccc(C(=O)Nc2cc(C(=O)NCc3ccc(F)cc3)ccc2N2CC3CC(C2)c2cccc(=O)n2C3)cc1` (stereo not drawn), for which the EC50 was > 16.9 µM (inactive).

Turning to `C=CCN1C(=O)/C(=C/c2ccc(OCC(=O)O)cc2)S/C1=N/c1nccs1`, the EC50 was > 28 µM (inactive).

On to `C=CCOC(=O)CCN1C(=O)c2ccccc2C1=O`, for which the EC50 is > 28 µM (inactive).

For `COc1cccc(-c2ccc(SCC(=O)Nc3ccc4c(c3)OCCO4)nn2)c1`, the EC50 is > 28.7 µM (inactive).

Take `Clc1nc(NCc2ccccc2)c2ncn(-c3ccccc3)c2n1`: the EC50 is > 28.1 µM (inactive).

Consider `COc1ccc(/C=C/C(=O)Nc2ccccc2)cc1`, for which the EC50 was > 32.6 µM (inactive).

For `Cn1c(=O)c2c(SCCC3OCCO3)nc(C3CCCCC3)nc2n(C)c1=O`, the EC50 is > 27.6 µM (inactive).

Regarding `O=S(=O)(O)c1ccc2nc(-c3ccccc3)[nH]c2c1`, the EC50 was > 28 µM (inactive).

Turning to `CCN(CC)C(=O)C(=O)c1c(C)n(C)c2ccccc12`, the EC50 was > 28 µM (inactive).

On to `O=C(Nc1c2c(nn1-c1cccc(Cl)c1)CSC2)c1ccccc1Br`, for which the EC50 is > 20.9 µM (inactive).

As to `COc1ccc(/C=C2/NC(=O)N(c3cccc(Cl)c3)C2=O)c(OC)c1`, the EC50 is > 28 µM (inactive).

For `O=C(NCCO)c1ccc(-c2ccc(N3CCOCC3)nc2)s1`, the EC50 was > 27 µM (inactive).

In the case of `O=C(CN1C(=O)C(c2ccccc2)=NC12CCCC2)Nc1ccccc1`, the EC50 was > 28 µM (inactive).

As to `CN(C)CCN(C)C(=O)c1cccc(OC2CCN(C3CCSCC3)CC2)c1`, the EC50 is > 28 µM (inactive).

On to `CSC1=NSC2=NC(=O)/C(=C\c3ccc([N+](=O)[O-])cc3)C(=N)N12`, for which the EC50 was > 28 µM (inactive).

Regarding `CC(=O)c1ccc(NC(=O)COC(=O)c2ccc3c(c2)nc(C)n3-c2ccccc2)cc1`, the EC50 was > 28.8 µM (inactive).

Consider `Cn1nc(C(=O)NCc2ccc(F)cc2)c2c1-c1ccccc1OC2`, for which the EC50 was > 28 µM (inactive).

For `O=C(Nc1ccc(Oc2cccc(Oc3ccc(NC(=O)c4ccccc4F)cc3)c2)cc1)c1ccccc1F`, the EC50 is > 14.8 µM (inactive).

As for `Fc1ccc2nc(N3CCN(c4nc5ccccc5s4)CC3)sc2c1`, the EC50 was > 28 µM (inactive).

In the case of `Cc1ccc2nc(NC(=O)C3=COCCO3)sc2c1`, the EC50 is > 28.4 µM (inactive).

For the molecule `COc1ccc(-c2cn3cc(C(=O)O)ccc3n2)cc1`, the EC50 is > 29.2 µM (inactive).

Turning to `CCOc1ccc(S(=O)(=O)N(CC(=O)NCCSc2ccccc2)c2ccccc2)cc1`, the EC50 is > 26.6 µM (inactive).

In the case of `O=C(CSc1nc(NC2CCCCC2)c2ccccc2n1)c1ccc(F)cc1`, the EC50 is > 28.1 µM (inactive).

Consider `CN(C)/C=C1/C(=O)N(c2nc3ccccc3s2)N=C1C(F)(F)F`, for which the EC50 was > 38.5 µM (inactive).

Consider `NC(=O)c1ccsc1NC(=O)/C=C/c1ccccc1`, for which the EC50 was > 26.7 µM (inactive).

For `CC[n+]1cc(C)ccc1/C=C/c1ccc(N(C)C)cc1`, the EC50 was > 29.7 µM (inactive).

As to `O=C(O)c1cccc(COc2cccc(Cl)c2)c1`, the EC50 is > 28 µM (inactive).

Consider `COc1ccc(-c2ccc(C(=O)NC3CC3)s2)cc1`, for which the EC50 is > 28 µM (inactive).

For `Cc1ccccc1C(=O)Nc1noc2ccccc12`, the EC50 is > 28 µM (inactive).

With `CC(C)C[C@@H]1NC(=O)[C@@H]2C[C@H](NC(=O)Nc3cccc(C(F)(F)F)c3)CN2C1=O`, the EC50 is > 28 µM (inactive).

Turning to `CCOC(=O)COc1ccc(/C=C2\C=C(c3ccc(Br)cc3)OC2=O)cc1OC`, the EC50 is > 23.6 µM (inactive).

With `CCN(CC)S(=O)(=O)c1ccc(C(=O)Nc2nnc(C(C)C)s2)cc1`, the EC50 was > 23.9 µM (inactive).

As to `O=C1NC(c2ccc(Cl)cc2Cl)Oc2ccccc21` (stereo not drawn), the EC50 was > 28 µM (inactive).

Consider `O=C(O)c1ccc(-n2cc(-c3cnccn3)cn2)cc1`, for which the EC50 was > 28 µM (inactive).

With `O=C(Oc1ccc2cc(Br)ccc2c1)c1ccco1`, the EC50 is > 25.9 µM (inactive).

With `COc1ccc(-c2noc(-c3cc4ccc(OC)cc4oc3=O)n2)cc1`, the EC50 is > 28 µM (inactive).

Regarding `OC1CCN(Cc2ccc3c(c2)CN(CC2CC=CCC2)CCO3)CC1` (stereo not drawn), the EC50 was > 28 µM (inactive).

`CCN(CC(=O)NC1CCCCCC1)S(=O)(=O)c1ccc(C)cc1`: the EC50 is > 28 µM (inactive).

As to `O=C(O)CCCN=C1CCc2ccccc2N1`, the EC50 is > 43.2 µM (inactive).

As for `CCC(Sc1nc(NC2CCCCC2)c2ccccc2n1)C(=O)Nc1ccc2c(c1)OCO2` (stereo not drawn), the EC50 was > 20.6 µM (inactive).

For the molecule `O=C(O)CCC(NCC(O)Cn1c2ccccc2c2ccccc21)C(=O)O` (stereo not drawn), the EC50 was > 28.7 µM (inactive).

For the molecule `O=C(NCc1ccc(F)cc1)c1cc(-c2ccccc2Cl)nc2ccccc12`, the EC50 is > 32.1 µM (inactive).

Take `CN1C(=O)C(=Cc2nc3ccccc3c(=O)n2-c2ccc([N+](=O)[O-])cc2)c2cc(Br)ccc21`: the EC50 is > 19.1 µM (inactive).

Take `CCOC(=O)C1=C(C)N=c2s/c(=C\c3ccc(-c4ccccc4C(=O)O)o3)c(=O)n2C1c1ccccc1OC` (stereo not drawn): the EC50 was > 25.1 µM (inactive).

On to `N=C1c2ccccc2CN1CC(=O)c1ccccc1`, for which the EC50 is > 27.4 µM (inactive).

As to `CCC(C)c1ccccc1NC(=S)NC(C)=O` (stereo not drawn), the EC50 was > 28 µM (inactive).

Consider `Cc1cccc(N2CCN(C(=O)c3ccc(S(=O)(=O)c4ccc(F)cc4)c([N+](=O)[O-])c3)C(C)C2)c1` (stereo not drawn), for which the EC50 was > 23.3 µM (inactive).

Take `O=C1CC(c2ccc(O)cc2)Oc2ccccc21` (stereo not drawn): the EC50 is > 28 µM (inactive).

Take `Cc1ccc(C(=O)CSc2[nH]c(=O)ncc2C)cc1`: the EC50 is > 28.6 µM (inactive).

On to `O=C(/C=C/c1ccc(O)cc1)c1ccc(O)cc1O`, for which the EC50 is > 28 µM (inactive).

In the case of `COc1ccccc1-c1nnc(NC(=O)c2ccc([N+](=O)[O-])s2)o1`, the EC50 is > 9.17 µM (inactive).

As for `O=c1oc2cc(O)ccc2cc1-c1ccc(Cl)cc1`, the EC50 was > 28.8 µM (inactive).

Regarding `CC1(C)Cc2cccc(OCC(=O)NC3=NCCS3)c2O1`, the EC50 was > 29.3 µM (inactive).

With `O=C(Nc1ncc([N+](=O)[O-])s1)c1cccs1`, the EC50 is > 28 µM (inactive).

On to `Cc1ccc(S(=O)(=O)N(CC(O)Cn2nc(C)cc2C)c2cccc([N+](=O)[O-])c2)cc1` (stereo not drawn), for which the EC50 was > 28 µM (inactive).

As to `CSc1nccc(-c2cc(Cl)c3c(c2)CC(CNC(=O)c2ccoc2)O3)n1` (stereo not drawn), the EC50 was > 28 µM (inactive).

In the case of `CCOCCCNC(=O)CSc1ncccc1-c1nc2cc(C)c(C)cc2[nH]1`, the EC50 is > 28 µM (inactive).

Take `COC(C(=O)NCC1CCC2(CCN(Cc3ccccc3)CC2)O1)c1ccccc1` (stereo not drawn): the EC50 is > 28 µM (inactive).

Consider `O=C(COc1ccc(Cl)cc1Cl)Nc1ncn[nH]1`, for which the EC50 is > 28 µM (inactive).

For the molecule `N#C/C(=C\c1c(Oc2ccc(Cl)cc2Cl)nc2ccccn2c1=O)C(N)=O`, the EC50 was > 27.9 µM (inactive).

Consider `Nc1ncc(Br)cc1S(=O)(=O)N1CCN(C2CCCCC2)CC1`, for which the EC50 is > 28 µM (inactive).

For the molecule `C1=Nc2ccccc2SC(c2cccnc2)=C1`, the EC50 is > 28.2 µM (inactive).

In the case of `Cc1ccc(N(CC(=O)NCCC2=CCCCC2)S(C)(=O)=O)cc1Cl`, the EC50 is > 28 µM (inactive).

Consider `C=CCN(c1ccc(C(=O)Nc2ccc(Cl)cc2)cc1)S(C)(=O)=O`, for which the EC50 was > 28 µM (inactive).

Take `Cc1ccsc1C(=O)Nc1nc2ccc(S(C)(=O)=O)cc2s1`: the EC50 is > 28.6 µM (inactive).

Turning to `CCSCCOC(=O)C1=C(C)NC(=O)NC1c1ccc(OC(F)(F)F)cc1` (stereo not drawn), the EC50 is > 22.5 µM (inactive).

For `C#CCN1CCc2cc(OC)c(OC)cc2C1C` (stereo not drawn), the EC50 was > 28 µM (inactive).

For the molecule `CN(C)c1cccc2c(S(=O)(=O)Nc3nccnc3-c3ccc(C=O)cc3)cccc12`, the EC50 is > 28 µM (inactive).

With `O=C(NC1CC1)c1ccc(-c2ccc(N3CCOCC3)nc2)s1`, the EC50 was > 27.6 µM (inactive).

As for `CCC(C)C1N=C2c3ccccc3N=C(SCC(=O)N3CC(C)CC(C)C3)N2C1=O` (stereo not drawn), the EC50 was > 29.4 µM (inactive).

For `Cc1ccc(C(=O)Nc2nc(Cl)c(C#N)s2)cc1`, the EC50 is > 28.2 µM (inactive).

Consider `CC(C)N1CCC(=NNC(=O)c2ccc(C(C)(C)C)cc2)CC1`, for which the EC50 is > 28 µM (inactive).

Regarding `O=C(COc1ccccc1Cl)Nc1nccs1`, the EC50 was > 39.1 µM (inactive).

Regarding `Cc1nn(C)cc1CN1CCOc2ccc(CN3CCc4ccccc4C3)cc2C1`, the EC50 is > 28 µM (inactive).

As to `COc1ccc(-c2nc3ccccc3[nH]2)cc1`, the EC50 was > 35 µM (inactive).

For the molecule `Fc1ccc(CSc2ncn[nH]2)cc1`, the EC50 was > 50.7 µM (inactive).

On to `COc1cccc(-c2ccc(SCC(=O)Nc3cccc(NC(C)=O)c3)nn2)c1`, for which the EC50 is > 27.4 µM (inactive).

Regarding `Cc1cccc(C)c1-n1c(=S)sc2c(=O)n(-c3cccc(Cl)c3)c(SCC#N)nc21`, the EC50 is > 21.8 µM (inactive).

As to `Clc1ccccc1/C=C/c1nc(-c2ccccn2)no1`, the EC50 is > 28 µM (inactive).

Regarding `O=C(Cn1[nH]c(=O)c2ccccc2c1=O)Nc1cccnc1`, the EC50 is 0.00579 µM.

Values taken from PubChem BioAssay AID1508610 (The Scripps Research Institute Molecular Screening Center, 2020).
